Measured values taken from PMC4965013, “Open Source Drug Discovery with the Malaria Box Compound Collection for Neglected Diseases and Beyond” (PLoS Pathogens, 2016).
Values after ≈ are worked out from the molar mass of the structure shown. Read-outs that look alike come from different tables or passages of the source.

Columns and labels:
P. falciparum HB3 = experiment: Stage-specificity / mitochondrial integrity image assay Ayong; assay type: cell-based; details: 10µM
P. falciparum Dd2 = experiment: Malaria Sybr Green I Fluorescence assay Dd2 Horrocks; assay type: cell-based; details: Plasmodium falciparum, DD2, 48 h; read-out: P. falciparum Dd2 asexual blood stage EC50 Horrocks
In short: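 Dd2 asexual parasites started at 2% trophozoite-stage parasitaemia and 2% hematocrit; growth read by SYBR Green I fluorescence after 48 h. IC50 values taken from log dose-response curves.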

P. falciparum FCR3 = experiment: FCR3 SYBR Green I assay Horii; assay type: cell-based; details: Plasmodium falciparum, FCR3, 72 h; read-out: P. falciparum FCR3 asexual blood stage IC50 Horii
Procedure: Column T: Horii group (data presented first in this paper). IC50 against asexual blood stage P. falciparum FCR3. Methods: For measurement of anti-Plasmodium activities, P. falciparum FCR3 strain was cultured in the RPMI 1640 medium supplemented with 10% human type A serum from in-house volunteers at 37°C, 5% O2 and 5% CO2 (0.5% parasitemia and 2% hematocrit) for 72 h in the presence of the compounds (DMSO final concentration, 0.25%). The growth inhibition of P. falciparum was determined using a SYBR Green I assay. Lysis buffer (20 mM Tris (pH 7.5), 5 mM EDTA, 0.008% (w/v) saponin and 0.08% (v/v) Triton X-100) containing SYBR Green I was added to each well and incubated at room temperature and dark condition for 1-5 hours. After the incubation, amounts of parasite DNA were measured as fluorescence at 485 nm of excitation and 530 nm of emission. An unpublished antimalarial compound was used as positive control in the assay.

[1] = tested on: P. falciparum NF54Pfs16 gametocytes stage IV-V; details: ref [69]; read-out: late stage gametocyte luciferase, no inhibition up to; cited from earlier work
P. falciparum 3D7 = experiment: [3H]-hypoxanthine growth inhibition, modified HCO3- or O2; assay type: cell-based; details: for IC50: Plasmodium falciparum
P. falciparum 3D7 or K1 = experiment: Asexual Blood Stage Imaging Assay (DAPI) V. Avery; assay type: cell-based; details: Plasmodium falciparum
[2] = tested on: P. falciparum NF54Pfs16 gametocytes stage I-III; details: ref [61]; read-out: gametocyte early stage (I-III) luciferase EC50; cited from earlier work
A. ceylanicum L3 larvae = A. ceylanicum L3 larvae J. Keiser; assay type: cell-based, Ancylostoma ceylanicum; details: 200µM
T. muris L1 larvae = T. muris L1 larvae J. Keiser; assay type: cell-based, Trichuris muris; details: 100µM
T. b. brucei Squib 427 = experiment: T. b. brucei growth Maes; assay type: cell-based, Trypanosoma brucei brucei; details: non-toxic, positive in all T. brucei screens
[3] = tested on: P. falciparum 3D7 trophozoites; experiment: Metabolomic fingerprint profiling LC-MS; assay type: cell-based, Plasmodium falciparum; parameters: UDP-D-glucose / ADP-D-glucose: unit not given here
P. falciparum = experiment: EC50 listed in S2 Table Metabolomics (used to set the concentration tested); assay type: cell-based; details: Plasmodium falciparum; EC50 used for Factor_XEC50 in metabolomics; read-out: EC50_nM
Staphylococcus aureus = experiment: S. aureus agar spot / MIC Baker; details: read-out: Minimum Inhibitory Concentrations (MIC) S. aureus
[4] = tested on: Acinetobacter baumannii ATCC 19606; experiment: A. baumannii agar spot / MIC Baker; details: ATCC19606, read-out: Minimum Inhibitory Concentrations (MIC) A. baumanii
[5] = tested on: Naegleria fowleri trophozoites; experiment: Naegleria fowleri CellTiter-Glo; assay type: cell-based; details: Naegleria fowleri
In short: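 Growth inhibition of Naegleria fowleri trophozoites in vitro, read as cellular ATP by CellTiter-Glo 2.0 luminescence in lysed cells, output in relative light units.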

[6] = metabolite level change after treatment

CCN(CC)CCCC(C)Nc1ccnc2cc(Cl)ccc12 (centres unmarked) [Chloroquine, reference compound]
Effects on asexual life cycle progression (treatment at ER, LR, T, S; merozoites; mitochondrial integrity) (P. falciparum HB3): LR-X-S-o-o-o
EC50 (P. falciparum Dd2): 209 nM
IC50 (P. falciparum FCR3): 125 nM
IC50 [1]: > 10000 nM
fold change (IC50normal/ IC50hypoxia) (P. falciparum 3D7): 1.6
fold change (IC50reduced/IC50normal) (P. falciparum 3D7): 2.3
IC50 (P. falciparum 3D7; 3D7, read-out: P. falciparum 3D7 IC50 1% O2, 1% O2 hypoxia): 7 nM
IC50 (P. falciparum 3D7; 3D7, read-out: P. falciparum 3D7 IC50 5% O2): 11 nM
IC50 (P. falciparum 3D7; 3D7, read-out: P. falciparum 3D7 IC50 HCO3- (2g/L), standard media): 16 nM
IC50 (P. falciparum 3D7; 3D7, HCO3- reduced media, read-out: P. falciparum 3D7 IC50 HCO3- reduced): 36 nM
EC50 (P. falciparum 3D7 or K1; read-out: P. falciparum 3D7 asexual blood stage EC50 (Image) V. Avery): 3 nM
EC50 (P. falciparum 3D7 or K1; read-out: P. falciparum K1 asexual blood stage EC50 (Image) V. Avery): 199 nM
EC50 [2]: 77 nM

c1ccc([C@H]2CN3CCSC3=N2)cc1 [Levamisole, reference compound]
A. ceylanicum positive control effect (A. ceylanicum L3 larvae): caused death of all worms
T. muris positive control effect (T. muris L1 larvae): caused death of all worms

CN(C)CCCNCc1ccc(-c2ccc(F)c(Cl)c2)o1 [MMV020505]
Selectivity Index T. brucei screens (T. b. brucei Squib 427): > 10

CCN1CCN(Cc2ccc(NC(=O)c3cc4ccc5cccnc5c4[nH]3)cc2)CC1 [MMV020548]
Selectivity Index T. brucei screens (T. b. brucei Squib 427): > 10
Acetyllysine ([3]; S2 Table Metabolomics, metabolite Acetyllysine): -1.074
N-acetyl-L-ornithine ([3]; S2 Table Metabolomics, metabolite N-acetyl-L-ornithine): -0.7002
N-carbamoyl-L-aspartate ([3]; S2 Table Metabolomics, metabolite N-carbamoyl-L-aspartate): 0.01627
NADPH ([3]; S2 Table Metabolomics, metabolite NADPH): -0.7588
dAMP ([3]; S2 Table Metabolomics, metabolite dAMP): 0.7039
dCMP ([3]; S2 Table Metabolomics, metabolite dCMP): 0.2246
dTDP ([3]; S2 Table Metabolomics, metabolite dTDP): 0.1022
dTMP ([3]; S2 Table Metabolomics, metabolite dTMP): 0.01221
dTTP ([3]; S2 Table Metabolomics, metabolite dTTP): -0.4268
dihydroorotate ([3]; S2 Table Metabolomics, metabolite dihydroorotate): 0.1148
orotate ([3]; S2 Table Metabolomics, metabolite orotate): 0.2392
DLH ([3]; S2 Table Metabolomics, peptide DLH): -1.531
DLS/SDL/SID ([3]; S2 Table Metabolomics, peptide DLS/SDL/SID): -1.1
PD ([3]; S2 Table Metabolomics, peptide PD): -1.147
PEE ([3]; S2 Table Metabolomics, peptide PEE): -0.7652
PVNF ([3]; S2 Table Metabolomics, peptide PVNF): -1.327
3-phosphoglycerate ([3]; metabolite 3-phosphoglycerate, S2 Table Metabolomics): -0.1406
ADP-D-glucose ([3]; metabolite ADP-D-glucose, S2 Table Metabolomics): 0.03533
ATP ([3]; metabolite ATP, S2 Table Metabolomics): -0.3247
CDP ([3]; metabolite CDP, S2 Table Metabolomics, change in metabolite level after compound treatment): -0.06734
D-sedoheptulose-1/7-phosphate ([3]; metabolite D-sedoheptulose-1/7-phosphate, S2 Table Metabolomics, change in metabolite level after compound treatment): -0.2201
FAD ([3]; metabolite FAD, S2 Table Metabolomics): -0.1695
GMP ([3]; metabolite GMP, S2 Table Metabolomics, change in metabolite level after compound treatment): 0.03987
NAD+ ([3]; metabolite NAD+, S2 Table Metabolomics): -0.004207
NADP+ ([3]; metabolite NADP+, S2 Table Metabolomics): -0.07599
Octoluse Bisphosphate ([3]; metabolite Octoluse Bisphosphate, S2 Table Metabolomics, change in metabolite level after compound treatment): -0.5083
Pyroglutamic acid ([3]; metabolite Pyroglutamic acid, S2 Table Metabolomics): 0.8773
UDP-D-glucose ([3]; metabolite UDP-D-glucose, S2 Table Metabolomics): -0.04378
UDP-D-glucuronate ([3]; metabolite UDP-D-glucuronate, S2 Table Metabolomics): -0.2395
UDP-N-acetyl-glucosamine ([3]; metabolite UDP-N-acetyl-glucosamine, S2 Table Metabolomics): -0.0477
UDP ([3]; metabolite UDP, S2 Table Metabolomics, change in metabolite level after compound treatment): -0.1277
UMP ([3]; metabolite UMP, S2 Table Metabolomics, change in metabolite level after compound treatment): -0.04731
UTP ([3]; metabolite UTP, S2 Table Metabolomics, change in metabolite level after compound treatment): -0.476
a-ketoglutarate ([3]; metabolite a-ketoglutarate, S2 Table Metabolomics): 0.2925
citrate/isocitrate ([3]; metabolite citrate/isocitrate, S2 Table Metabolomics, change in metabolite level after compound treatment): 0.7028
cytidine ([3]; metabolite cytidine, S2 Table Metabolomics): 0.2393
dATP ([3]; metabolite dATP, S2 Table Metabolomics): -0.2064
dGMP/AMP ([3]; metabolite dGMP/AMP, S2 Table Metabolomics, change in metabolite level after compound treatment): 0.2962
fumarate ([3]; metabolite fumarate, S2 Table Metabolomics, change in metabolite level after compound treatment): -0.1605
glucose-1/6-phosphate ([3]; metabolite glucose-1/6-phosphate, S2 Table Metabolomics, change in metabolite level after compound treatment): -0.1021
glycerate ([3]; metabolite glycerate, S2 Table Metabolomics, change in metabolite level after compound treatment): 0.2926
guanine ([3]; metabolite guanine, S2 Table Metabolomics, change in metabolite level after compound treatment): 0.4901
guanosine ([3]; metabolite guanosine, S2 Table Metabolomics, change in metabolite level after compound treatment): 0.1417
hypoxanthine ([3]; metabolite hypoxanthine, S2 Table Metabolomics): 0.9061
indole ([3]; metabolite indole, S2 Table Metabolomics): 0.3876
inosine ([3]; metabolite inosine, S2 Table Metabolomics, change in metabolite level after compound treatment): 0.524
2_3-Diphosphoglyceric acid [3, 6]: -0.4996
4-phosphopantothenate [3, 6]: 0.07924
6-phospho-D-gluconate [3, 6]: -0.3745
FMN [3, 6]: -0.06134
IMP [3, 6]: 0.03526
Pyrophosphate [3, 6]: -0.5624
Sedoheptoluse bisphosphate [3, 6]: -0.2788
cyclic-AMP [3, 6]: -0.1988
glutathione disulfide [3, 6]: -0.4809
lactate [3, 6]: 0.3196
myo-inositol [3, 6]: -0.02428
nicotinate ([3]; metabolite nicotinate, S2 Table Metabolomics): 0.6741
ornithine ([3]; metabolite ornithine, S2 Table Metabolomics): -0.3153
phosphoenolpyruvate ([3]; metabolite phosphoenolpyruvate, S2 Table Metabolomics): 0.09829
pyruvate ([3]; metabolite pyruvate, S2 Table Metabolomics, change in metabolite level after compound treatment): 0.858
ribose-phosphate ([3]; metabolite ribose-phosphate, S2 Table Metabolomics): -0.1246
sarcosine/alanine ([3]; metabolite sarcosine/alanine, S2 Table Metabolomics, change in metabolite level after compound treatment): 0.05828
sn-glycerol-3-phosphate ([3]; metabolite sn-glycerol-3-phosphate, S2 Table Metabolomics): -0.07501
succinate/methylmalonic acid ([3]; metabolite succinate/methylmalonic acid, S2 Table Metabolomics, change in metabolite level after compound treatment): -0.07231
uridine ([3]; metabolite uridine, S2 Table Metabolomics, change in metabolite level after compound treatment): 0.7812
xanthosine ([3]; metabolite xanthosine, S2 Table Metabolomics, change in metabolite level after compound treatment): 0.03293
EC50 (P. falciparum): 361 nM

O=C(Nc1cccc(C(F)(F)F)c1)c1cc(Cl)ccc1O [MMV665807]
MIC (Staphylococcus aureus): 1.25 to 5 µM (≈ 0.395 to 1.58 µg/mL)
MIC [4]: 1.25 to 5 µM (≈ 0.395 to 1.58 µg/mL)
EC50 [5]: 1090 nM

O=C(Nc1ccc(F)c(Cl)c1)Nc1ccc(Cl)c(Cl)c1 [MMV665953]
MIC (Staphylococcus aureus): 1.25 to 5 µM (≈ 0.417 to 1.67 µg/mL)
MIC [4]: 1.25 to 5 µM (≈ 0.417 to 1.67 µg/mL)

ivermectin [reference compound]
A. ceylanicum positive control effect (A. ceylanicum L3 larvae): caused death of all worms
T. muris positive control effect (T. muris L1 larvae): caused death of all worms
